Values of other authors as cited in patent US20090117076A1, “Methods For Treating Tumor Cells” (priority 2007, published 2009).
Structures can show the parent of a compound that is named as a salt. Where two headings read alike, the source gives them in different places.

Key:
[1] = system: GIST; settings: for Median time to progression, historical value: single agent imatinib
[2] = primates

Cc1ccc(NC(=O)c2ccc(CN3CCN(C)CC3)cc2)cc1Nc1nccc(-c2cccnc2)n1 [imatinib, imatinib mesylate]
Overall response rate of tumor necrosis/apoptosis ([1]; human, in vivo): 69%
Median time to progression, historical value ([1]; subgroup with KIT exon 11 mutation): 687 days
Median time to progression, historical value ([1]; subgroup without KIT exon 11 mutation): 200 days

interferon α-2b
Abortifacient effect [2]: abortifacient
